tested on: mutant Huntington (HTT) protein; test: HTT Mutant HTRF iPSC assay (mHTT protein lowering); assay type: cell-based; details: human iPSC derived from a HTT patient with a poly-Q49 mutation

SMILES	IC50
Cc1cn2nc(-c3cc(F)c4nn([C@H]5[C@@H]6CN(CC7CC7)C[C@@H]65)cc4c3)cc(C)c2n1 [Compound 367, 6-[2-[(1R,5S)-3-(cyclopropylmethyl)-3-azabicyclo[3.1.0]hexan-6-yl]-7-fluoro-indazol-5-yl]-2,8-dimethyl-imidazo[1,2-b]pyridazine]	0.1 to 1 µM
CCN1CCC(c2cn3cc(-c4cc(C)c5nc(C)cn5c4)cc(F)c3n2)CC1 [Compound 27, 2-(1-ethylpiperidin-4-yl)-8-fluoro-2′,8′-dimethyl-6,6′-biimidazo[1,2-a]pyridine]	0.1 to 1 µM
COCCN1CC(NC(=O)c2cn3cc(-c4cc(C)c5nc(C)cn5n4)cc(F)c3n2)C1 [Compound 338, 6-(2,8-dimethylimidazo[1,2-b]pyridazin-6-yl)-8-fluoro-N-[1-(2-methoxyethyl)azetidin-3-yl]imidazo[1,2-a]pyridine-2-carboxamide]	< 0.1 µM
Cc1cn2nc(-c3cc(F)c4nc([C@H]5CCNC5)cn4c3)cc(C)c2n1 (single isomer, unassigned) [Compound 190]	0.1 to 1 µM
Cc1cn2nc(-c3cc(F)c4nc(C5CCNC5)cn4c3)cc(C)c2n1 (centres unmarked) [Compound 160, 6-(8-fluoro-2-(pyrrolidin-3-yl)imidazo[1,2-a]pyridin-6-yl)-2,8-dimethylimidazo[1,2-b]pyridazine]	< 0.1 µM
Cc1cn2nc(-c3cc(F)c4nc(NC(=O)C5CCCN(C)C5)nn4c3)cc(C)c2n1 (single isomer, unassigned) [Compound 325]	0.1 to 1 µM
Cc1cn2nc(-c3cc(F)c4nc([C@H]5C[C@@H](CN(C)C)C5)cn4c3)cc(C)c2n1 [Compound 182, 1-((1s,3s)-3-(6-(2,8-dimethylimidazo[1,2-b]pyridazin-6-yl)-8-fluoroimidazo[1,2-a]pyridin-2-yl)cyclobutyl)-N,N-dimethylmethanamine]	< 0.1 µM
Cc1cn2nc(-c3cc(F)c4nc(NC(=O)C5CCNC6(CC6)C5)nn4c3)cc(C)c2n1 (racemic) [Compound 330, N-(6-(2,8-dimethylimidazo[1,2-b]pyridazin-6-yl)-8-fluoro-[1,2,4]triazolo[1,5-a]pyridin-2-yl)-4-azaspiro[2.5]octane-7-carboxamide]	0.1 to 1 µM
CCN1CCC(n2nc3cc(-c4cc(C(F)F)c5nc(C)cn5n4)cc(F)c3n2)CC1 [Compound 377, 6-(8-(difluoromethyl)-2-methylimidazo[1,2-b]pyridazin-6-yl)-2-(1-ethylpiperidin-4-yl)-4-fluoro-2H-benzo[d][1,2,3]triazole]	0.1 to 1 µM
Cc1cn2nc(-c3cc(F)c4nc(NC(=O)C5CNCC5(C)C)nn4c3)cc(C)c2n1 (centres unmarked) [Compound 319, N-(6-(2,8-dimethylimidazo[1,2-b]pyridazin-6-yl)-8-fluoro-[1,2,4]triazolo[1,5-a]pyridin-2-yl)-4,4-dimethylpyrrolidine-3-carboxamide]	1 to 9 µM
Cc1cn2nc(-c3cc(F)c4nc(NC(=O)C5CN(C)C5)cn4c3)cc(C)c2n1 [Compound 257, N-(6-(2,8-dimethylimidazo[1,2-b]pyridazin-6-yl)-8-fluoroimidazo[1,2-a]pyridin-2-yl)-1-methylazetidine-3-carboxamide]	< 0.1 µM
Cc1cn2nc(-c3cc(F)c4nc(N5CC6CN(C)CC6C5)oc4c3)cc(C)c2n1 (centres unmarked) [Compound 466, 6-(2,8-dimethylimidazo[1,2-b]pyridazin-6-yl)-4-fluoro-2-(5-methylhexahydropyrrolo [3,4-c]pyrrol-2(1H)-yl)benzo[d]oxazole]	0.1 to 1 µM
Cc1cn2nc(-c3cc(F)c4nc([C@H]5[C@@H]6CN(CC7CC7)C[C@@H]65)cn4c3)cc(C)c2n1 [Compound 212, 6-(2-((1R,5S,6r)-3-(cyclopropylmethyl)-3-azabicyclo[3.1.0]hexan-6-yl)-8-fluoroimidazo[1,2-a]pyridin-6-yl)-2,8-dimethylimidazo[1,2-b]pyridazine]	< 0.1 µM
COc1cc(-c2cc(C)c3nc(C)nn3n2)cn2cc([C@H]3[C@@H]4CN(C)C[C@@H]43)nc12 [Compound 541, 6-(8-methoxy-2-((1R,5S,6r)-3-methyl-3-azabicyclo[3.1.0]hexan-6-yl)imidazo[1,2-a]pyridin-6-yl)-2,8-dimethyl-[1,2,4]triazolo[1,5-b]pyridazine]	0.1 to 1 µM

tested on: mHTT protein; test: not given; details: HD patient cells; cited from earlier work

SMILES	mHTT protein levels
CC1(C)CC(Oc2ccc(-c3ccc(-c4cn[nH]c4)cc3O)nn2)CC(C)(C)N1 [branaplam]	lowers mHTT protein levels

tested on: mHTT protein; test: not given; details: HD mouse model; cited from earlier work

SMILES	mHTT protein levels
CC1(C)CC(Oc2ccc(-c3ccc(-c4cn[nH]c4)cc3O)nn2)CC(C)(C)N1 [branaplam]	lowers mHTT protein levels

tested on: mHTT protein; test: not given; details: blood samples from SMA Type I patients dosed orally; cited from earlier work

SMILES	mHTT protein levels
CC1(C)CC(Oc2ccc(-c3ccc(-c4cn[nH]c4)cc3O)nn2)CC(C)(C)N1 [branaplam]	lowers mHTT protein levels
